Patent US20260125346A1, “Isoquinolinone Derivatives and 4H-Quinolizinone Derivatives and Pharmaceutical Compositions Thereof for the Treatment of Disease” (BeOne Medicines I GmbH, priority 2023, published 2026)

Legend:
WT cell line SK-BR-3 = assay: Cell Proliferation Assay (CellTiter-Glo), SK-BR-3; assay type: cell-based; conditions: Homo sapiens, 72 h; SK-BR-3, 3 days treatment
Outline: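 SK-BR-3 cells treated for 3 days with compound in a 9-point series, final concentrations 10 M to 1 nM in 0.1% DMSO. Viability read by CellTiter-Glo luminescence. Relative IC50 from percent inhibition versus medium-only and DMSO controls, four-parameter logistic fit.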

[1] = tested on: PI3Kα H1047R mutated cell line T-47D cells; assay: Cell Proliferation Assay (CellTiter-Glo), T-47D; assay type: cell-based; conditions: for IC50: Homo sapiens, T47D, 72 h, T-47D, 3 days treatment; for Selectivity: SK-BR-3/T-47D (cell proliferation): cell proliferation IC50 ratio
Outline: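 T-47D cells seeded overnight at 3×10^3/well, then exposed 3 days to 9-point 1:3 dilutions, final […] to 1 nM in 0.1% DMSO. CellTiter-Glo luminescence; relative IC50 from percent inhibition versus medium-only and 0.1% DMSO controls, 4-parameter logistic fit.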

[2] = biological target: PI3Kα (p110/p85) kinase (wild type, "WT") (Homo sapiens, UniProt P42336); assay: PI3Kα (p110/p85) kinase ADP-Glo Assay; assay type: biochemical; conditions: 25 uM ATP
Sequence of PI3Kα (p110/p85) kinase (wild type, "WT") (P42336 whole entry): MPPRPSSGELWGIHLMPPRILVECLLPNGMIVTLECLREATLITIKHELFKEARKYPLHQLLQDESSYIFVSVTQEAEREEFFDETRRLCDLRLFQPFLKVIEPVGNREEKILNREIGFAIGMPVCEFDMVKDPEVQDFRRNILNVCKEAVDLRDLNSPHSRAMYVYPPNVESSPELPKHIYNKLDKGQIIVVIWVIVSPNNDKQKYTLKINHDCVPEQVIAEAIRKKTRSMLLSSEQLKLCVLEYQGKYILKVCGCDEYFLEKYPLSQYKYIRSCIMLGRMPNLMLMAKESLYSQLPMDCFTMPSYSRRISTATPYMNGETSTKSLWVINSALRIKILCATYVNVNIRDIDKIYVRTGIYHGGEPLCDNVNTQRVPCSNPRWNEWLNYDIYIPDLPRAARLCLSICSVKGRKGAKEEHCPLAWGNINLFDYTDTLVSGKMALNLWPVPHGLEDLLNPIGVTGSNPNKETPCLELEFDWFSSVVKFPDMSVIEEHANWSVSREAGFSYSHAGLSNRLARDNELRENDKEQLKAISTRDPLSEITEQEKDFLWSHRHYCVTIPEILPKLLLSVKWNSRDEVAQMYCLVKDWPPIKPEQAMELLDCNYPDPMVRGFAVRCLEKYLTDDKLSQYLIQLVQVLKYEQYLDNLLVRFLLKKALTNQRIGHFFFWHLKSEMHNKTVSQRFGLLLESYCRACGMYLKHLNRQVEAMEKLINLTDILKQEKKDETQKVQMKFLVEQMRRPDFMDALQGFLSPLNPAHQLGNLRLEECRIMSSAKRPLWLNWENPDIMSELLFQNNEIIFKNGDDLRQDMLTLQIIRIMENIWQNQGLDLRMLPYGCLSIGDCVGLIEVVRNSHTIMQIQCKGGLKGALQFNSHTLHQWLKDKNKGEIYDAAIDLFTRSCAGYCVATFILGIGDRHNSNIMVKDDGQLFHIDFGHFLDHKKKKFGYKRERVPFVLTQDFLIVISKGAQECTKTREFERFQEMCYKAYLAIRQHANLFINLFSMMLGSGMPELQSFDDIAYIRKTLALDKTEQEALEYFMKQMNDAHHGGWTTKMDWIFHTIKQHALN
Sequence of PI3Kα (p110/p85) kinase (wild type, "WT") (P27986 whole entry partner): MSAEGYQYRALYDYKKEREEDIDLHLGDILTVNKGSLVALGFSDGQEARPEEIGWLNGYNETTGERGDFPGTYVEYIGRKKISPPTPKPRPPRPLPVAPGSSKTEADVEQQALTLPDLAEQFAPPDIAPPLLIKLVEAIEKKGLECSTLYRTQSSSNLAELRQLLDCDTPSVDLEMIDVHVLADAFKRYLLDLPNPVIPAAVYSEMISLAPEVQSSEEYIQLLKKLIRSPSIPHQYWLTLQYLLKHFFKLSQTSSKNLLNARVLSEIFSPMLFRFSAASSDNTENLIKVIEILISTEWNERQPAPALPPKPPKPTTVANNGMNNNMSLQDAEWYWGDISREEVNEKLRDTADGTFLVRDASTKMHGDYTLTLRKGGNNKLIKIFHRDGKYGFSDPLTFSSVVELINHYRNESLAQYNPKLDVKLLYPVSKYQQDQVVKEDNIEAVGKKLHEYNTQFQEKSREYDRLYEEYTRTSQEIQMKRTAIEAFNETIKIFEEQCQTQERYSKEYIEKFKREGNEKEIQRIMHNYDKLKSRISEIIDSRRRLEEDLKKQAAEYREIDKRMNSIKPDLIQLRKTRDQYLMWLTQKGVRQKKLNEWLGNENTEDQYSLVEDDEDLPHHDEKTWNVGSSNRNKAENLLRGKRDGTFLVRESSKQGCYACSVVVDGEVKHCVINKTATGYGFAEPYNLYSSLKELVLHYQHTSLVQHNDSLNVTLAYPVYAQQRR
Outline: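 Wild-type PI3Kα p110/p85 preincubated 30 min at RT with PI(4,5)P2:PS substrate ([…]) and compound ([…]) in HEPES pH7.5 buffer with MgCl2, DTT and BSA; reaction started with 25 µM ATP for 120 min at RT. ADP measured by ADP-Glo luminescence; IC50 from four-parameter logistic fit.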

[3] = biological target: PI3Kα (p110[H1047R]/p85) kinase (Homo sapiens, UniProt P42336, H1047R); assay: PI3Kα (p110[H1047R]/p85) kinase ADP-Glo Assay; assay type: biochemical; conditions: 25 uM ATP; for selectivity: WT/H1047R: ADP-Glo Assay IC50 ratio
Sequence of PI3Kα (p110[H1047R]/p85) kinase (P42336 whole entry H1047R): as the sequence (P42336 whole entry) above, with H1047R counted along it
Sequence of PI3Kα (p110[H1047R]/p85) kinase (P27986 whole entry partner): as the sequence (P27986 whole entry partner) above
Outline: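 PI3Kα H1047R/p85 pre-incubated 30 min at room temperature with PI(4,5)P2:PS substrate ([…]) and compound ([…]) in HEPES pH 7.5 buffer with MgCl2; ATP ([…]) then added for 120 min. ADP quantified by ADP-Glo luminescence; IC50 from four-parameter logistic fit.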

IC50 (WT cell line SK-BR-3) | IC50 [1] | IC50 [2] | IC50 [3] | selectivity: WT/H1047R [3] | SMILES | Selectivity: SK-BR-3/T-47D (cell proliferation) [1]
> 10000 nM | 279 nM | 13600 nM | 1210 nM | 11.2 | Cc1cc([C@@H](C)Nc2ccccc2C(=O)O)c2cc(-c3cnc(C(C)(C)O)nc3)n(C)c(=O)c2c1 [Example 67, (R)-2-((1-(3-(2-(2-hydroxypropan-2-yl)pyrimidin-5-yl)-2,7-dimethyl-1-oxo-1,2-dihydroisoquinolin-5-yl)ethyl)amino)benzoic acid] | >36
> 10000 nM | 375 nM | 15100 nM | 575 nM | 26.3 | Cc1cc(C(C)Nc2ccccc2C(=O)O)c2cc(-c3ccc(C(F)(F)F)nc3)n(C)c(=O)c2c1 (stereo not drawn) [Example 86, 2-((1-(2,7-dimethyl-1-oxo-3-(6-(trifluoromethyl)pyridin-3-yl)-1,2-dihydroisoquinolin-5-yl)ethyl)amino)benzoic acid] | >26.6
> 10000 nM | 172 nM | 12500 nM | 309 nM | 40.6 | Cc1cc(C(C)Nc2ccccc2C(=O)O)c2cc(-c3cccnc3)n(C)c(=O)c2c1 (stereo not drawn) [Example 37, 2-((1-(2,7-dimethyl-1-oxo-3-(pyridin-3-yl)-1,2-dihydroisoquinolin-5-yl)ethyl)amino)benzoic acid] | >58.3
